Where a name gives a salt, the structure may show the parent alone.
What was measured:
[1] = Solubility of Asenapine maleate in saturated solution (Funke et al., literature); type: physicochemical; details: water (saturated solution), thermodynamic from solid, converted from the maleate salt value at 23° C., pH=4.4, read-out: free base solubility
Text: Certain crystalline addition salts of Asenapine, for instance a fumarate (EP 0569096), salts with sulfonic acids (WO 98/54186), and a pamoate or hemipamoate salt (EP 0569096), are described in the literature. The pamoate salt is disclosed to be amorphous and the hemipamoate salt is a mixture of amorphous and crystalline phase, wherein the palmitate is described as oil. The marketed form is the maleate salt, which is disclosed to exist in polymorphic forms (WO 2006/106135). The known Asenapine salts have a low solubility in water.

[2] = 23° C., pH=4.4; cited from earlier work
[3] = Aqueous solubility by suspension equilibration in water, concentration in filtrate by HPLC; type: physicochemical
Experimental: The aqueous solubility was determined after 40 hours of suspension equilibration at 25° C. Thereafter, the suspension was filtered and the concentration in the liquid phase was determined by HPLC. The excellent solubility of the Asenapine hydrochloride dihydrate of the invention may render the salt to an excellent alternative to known salts of Asenapine, especially for a fast dissolving formulation.
An HPLC instrument from TSP (UV3000, AS3000, P4000, SCM1000 using software version 4.1) was used in combination with a column from Waters (XTerra MS 018, 4.6×100 mm, 5 μm (CC01A)). The mobile phase A was H2O/ACN 95:5 with 0.1% TFA, and mobile phase B was H2O/ACN 5:95 with 0.1% TFA. The reference concentration was 0.09 mg/mL. The Asenapine peak appeared at a retention time.
4.0-4.1 min. The method was isocratic with 70% mobile phase A and 30% mobile phase B at 0 min and after 10 min at a flow of 1.0 mL/min. The injection volume was 10 μL and the detection wavelength 202 nm.
The aqueous solubility of Asenapine salts is determined in water after 48 hours of suspension equilibration at 25° C. 200 mg of Asenapine hydrochloride is suspended in 1.5 ml of bidistilled water and the resulting suspension is placed on a laboratory shaker at 500 rpm. Thereafter, the suspension is filtered and the concentration in the liquid phase was determined by HPLC as described above. […]

[4] = Water uptake by dynamic vapor absorption; type: physicochemical
Experimental: Asenapine HCl dihydrate of the invention can absorb about 1.5% of additional water at 95% relative humidity at 25° C. and most of the water uptake occurs above 80% relative humidity as shown by dynamic vapor absorption.

SMILES	solubility [1] [µg/mL]	concentration of saturated solution [2] [mg/mL]	solubility at 2 days ([3]; pH 4, thermodynamic from solid, 25° C., 600 rpm, two days of equilibration, at a pH of 4.0, read-out: aqueous solubility (concentration of Asenapine in the filtered solution by HPLC)) [mg/mL]	solubility at 40 h ([3]; thermodynamic from solid, at 25° C., calculated as free base, after 40 hours of suspension equilibration, HPLC) [mg/mL]	additional water absorbed ([4]; 95% relative humidity at 25° C., most uptake above 80% relative humidity)	hygroscopicity ([4]; dynamic vapor absorption, 25° C.)
CN1C[C@@H]2c3ccccc3Oc3ccc(Cl)cc3[C@H]2C1 (relative stereo) [maleate salt of Asenapine, trans-5-chloro-2-methyl-2,3,3a,12b-tetrahydro-1H-dibenz[2,3:6,7]oxepino[4,5-c]pyrrole]	~4100	5.8				
CN1C[C@H]2c3ccccc3Oc3ccc(Cl)cc3[C@@H]2C1 (relative stereo) [Asenapine HCl dihydrate, trans-5-chloro-2-methyl-2,3,3a,12b-tetrahydro-1H-dibenz[2,3:6,7]oxepino[4,5-c]pyrrole]			24.2	24.2	about 1.5%	not, or only very slightly hygroscopic

— patent US9303036B2, “Crystalline asenapine hydrochloride salt forms” (Sandoz AG, priority 2011, dated 2016)
